# Experimental data from patent US11433055B2, “Chromane monobactam compounds for the treatment of bacterial infections” (priority 2017, dated 2022).
# Counter-ions that a name gives are not always drawn.
# What was measured:
# Assay type in all cases: cell-based
# Details in all cases: lowest concentration inhibiting 95% of bacterial growth; in the presence of β lactamase inhibitor (BLi, Relebactam); 22 hours, 35±2° C., OD600
# [1] = tested on: Pseudomonas aeruginosa expressing AmpC (CL5701)
# Description: (§1) Antibiotic Activity: Determination of Growth Inhibitory Concentration
# (§2) The concentrations of compounds required to inhibit the growth of various strains of bacteria were determined in an assay that assessed bacterial growth by measuring optical density at 600 nm (OD600). The bacterial strains tested included the clinical strains Escherichia coli expressing NDM-1 (CLB30016), Klebsiella pneumoniae expressing KPC-1 (CL6569), Acinetobacter baumannii expressing TEM-1, AmpC, and Oxa-24/40 (CL6188) and Pseudomonas aeruginosa expressing AmpC (CL5701). All compounds were tested in the presence of a β lactamase inhibitor (BLi, Relebactam) in 384-well microplates. The clinical strains were stored as frozen single use stocks, thawed and diluted into 1.1× cation-adjusted Mueller-Hinton II broth to achieve approximately 2×10^5 CFU/mL. Test compounds were dissolved in DMSO and diluted 1:50 in the assay, resulting in a final concentration range of 100 μM to 0.098 μM. On the day of the assay, 1 μL of test compound was added to the plate followed by 4 μL of 50 μg/mL BLi in MOPS buffer and 45 μL of diluted bacteria. Plates were centrifuged at 1000 rpm for 30 seconds, shaken at approximately 800 rpm for 1 minute, and incubated at 35±2° C. for 22 hours. The concentration of BLi used in the assay was […]. At the end of the incubation, absorbance at 600 nm was determined using a spectrophotometer. Inhibition was quantitated by identifying the lowest concentration of test compound that was required to inhibit 95% of the growth of the bacteria. The results for Examples 1-39 are reported in Table I, expressed as the concentration of compound that inhibited 95% of bacterial growth (Minimum Inhibitory Threshold Concentration; MITC95).
# [2] = tested on: Klebsiella pneumoniae expressing KPC-1 (CL6569)
# Description: as §1, §2
# [3] = tested on: Acinetobacter baumannii expressing TEM-1, AmpC, and Oxa-24/40 (CL6188)
# Description: as §1, §2
# [4] = tested on: Escherichia coli expressing NDM-1 (CLB30016)
# Description: as §1, §2
Compound,PA_CL5701 MITC95 [1] [µM],KP_CL6569 MITC95 [2] [µM],AB_CL6188 MITC95 [3] [µM],EC_CLB30016 MITC95 [4] [µM]
"CC1(C)[C@H](NC(=O)/C(=N\O[C@](C)(C(=O)O)[C@H]2CCc3cc(-c4cn(C[C@@H](O)CN)[n+](C[C@H]5CCNC5)c4)ccc3O2)c2csc(N)n2)C(=O)N1OS(=O)(=O)[O-] [Example 41, mono((S)-3-((Z)-2-(((S)-1-((R)-6-(1-((S)-3-amino-2-hydroxypropyl)-2-(((S)-pyrrolidin-1-ium-3-yl)methyl)-1H-pyrazol-2-ium-4-yl)chroman-2-yl)-1-carboxyethoxy)imino)-2-(2-aminothiazol-4-yl)acetamido)-2,2-dimethyl-4-oxoazetidin-1-yl sulfate) mono (2,2,2-trifluoroacetate)]",0.78,0.1,1.56,>50
"C[n+]1cc(-c2ccc3c(c2)CC[C@H]([C@](C)(O/N=C(\C(=O)N[C@@H]2C(=O)N(OS(=O)(=O)[O-])C2(C)C)c2csc(N)n2)C(=O)O)O3)cnc1NC(CN)CN.O=CO [Example 24, (3S)-3-((Z)-2-(((1S)-1-((2R)-6-(2-((1-amino-3-ammonio-propan-2-yl)amino)-1-methyl-pyrimidin-1-ium-5-yl)chroman-2-yl)-1-carboxyethoxy)imino)-2-(2-aminothiazol-4-yl)acetamido)-2,2-dimethyl-4-oxoazetidin-1-yl sulfate formate]",3.125,0.3906,1.563,3.125
"CC1(C)[C@H](NC(=O)/C(=N\O[C@](C)(C(=O)O)[C@H]2CCc3cc(C4CNC(NCCN)=N4)ccc3O2)c2csc(N)n2)C(=O)N1OS(=O)(=O)O (single isomer, unassigned) [Example 26]",50,1.563,12.5,100
"CC1(C)[C@H](NC(=O)/C(=N\O[C@](C)(C(=O)O)[C@H]2CCc3cc(-c4cn(C[C@@H](O)CN)[n+](C[C@@H]5CCNC5)c4)ccc3O2)c2csc(N)n2)C(=O)N1OS(=O)(=O)O.O=C([O-])C(F)(F)F [Example 40, Mono((S)-3-((Z)-2-(((S)-1-((R)-6-(1-((S)-3-amino-2-hydroxypropyl)-2-((R)-pyrrolidin-3-ylmethyl)-1H-pyrazol-2-ium-4-yl)chroman-2-yl)-1-carboxyethoxy)imino)-2-(2-aminothiazol-4-yl)acetamido)-2,2-dimethyl-4-oxoazetidin-1-yl sulfate) mono (2,2,2-trifluoroacetate)]",0.78,0.1,1.56,>50
"C[n+]1cc(-c2ccc3c(c2)CC[C@H]([C@](C)(O/N=C(\C(=O)N[C@@H]2C(=O)N(OS(=O)(=O)[O-])C2(C)C)c2csc(N)n2)C(=O)O)O3)cnc1N(CCN)CC1CNC1.O=CO [Example 15, (S)-3-((Z)-2-(((S)-1-((R)-6-(2-((2-aminoethyl)(azetidin-1-ium-3-ylmethyl)amino)-1-methylpyrimidin-1-ium-5-yl)chroman-2-yl)-1-carboxyethoxy)imino)-2-(2-aminothiazol-4-yl)acetamido)-2,2-dimethyl-4-oxoazetidin-1-yl sulfate formate]",6.25,0.3906,3.125,6.25
"C[n+]1cc(-c2ccc3c(c2)OCC(CO/N=C(\C(=O)N[C@@H]2C(=O)N(OS(=O)(=O)[O-])C2(C)C)c2csc(N)n2)C3)ccc1NCCN.O=C(O)C(F)(F)F (single isomer, unassigned) [Example 37B]",25,6.25,50,100
"C[n+]1cc(-c2ccc3c(c2)CC[C@H]([C@](C)(O/N=C(\C(=O)N[C@@H]2C(=O)N(OS(=O)(=O)[O-])C2(C)C)c2csc(N)n2)C(=O)O)O3)cn1C[C@@H](O)CN [Example 8, (S)-3-((Z)-2-(((S)-1-((R)-6-(1-((S)-3-amino-2-hydroxypropyl)-2-methyl-1H-pyrazol-2-ium-4-yl)chroman-2-yl)-1-carboxyethoxy)imino)-2-(2-aminothiazol-4-yl)acetamido)-2,2-dimethyl-4-oxoazetidin-1-yl sulfate]",25,3.125,100,100
"CC1(C)[C@H](NC(=O)/C(=N\O[C@](C)(C(=O)O)[C@H]2CCc3cc(C4CN=C(NCCCN)NC4)ccc3O2)c2csc(N)n2)C(=O)N1OS(=O)(=O)O (stereo partly drawn) [Example 27, (2S)-2-((2R)-6-(2-((3-aminopropyl)amino)-1,4,5,6-tetrahydropyrimidin-5-yl)chroman-2-yl)-2-(((Z)-(1-(2-aminothiazol-4-yl)-2-(((S)-22-dimethyl-4-oxo-1-(sulfooxy)azetidin-3-yl)amino)-2-oxoethylidene)amino)oxy)propanoic Acid]",6.25,0.7813,12.5,12.5
"CC1(C)[C@H](NC(=O)/C(=N\OCC2CCc3cc(C(=N)NCCN)ccc3O2)c2csc(N)n2)C(=O)N1OS(=O)(=O)O (stereo partly drawn) [Example 13, (3S)-3-((Z)-2-(((6-(N-(2-aminoethyl)carbamimidoyl)chroman-2-yl)methoxy)imino)-2-(2-aminothiazol-4-yl)acetamido)-2,2-dimethyl-4-oxoazetidin-1-yl hydrogen sulfate]",12.5,0.7813,25,12.5
"(S)-3-((Z)-2-(((S)-1-((R)-6-(1-(3-Aminopropyl)-2-(azetidin-3-ylmethyl)-1H-pyrazol-2-ium-4-yl)chroman-2-yl)-1-carboxyethoxy)imino)-2-(2-aminothiazol-4-yl)acetamido)-2,2-dimethyl-4-oxoazetidin-1-yl Sulfate [Example 3]",6.25,0.39,6.25,3.13
"C[n+]1cc(-c2ccc3c(c2)CC[C@H](CO/N=C(\C(=O)N[C@@H]2C(=O)N(OS(=O)(=O)[O-])C2(C)C)c2csc(N)n2)O3)ccc1NCCN [Example 35, mono((R)-3-((Z)-2-(2-aminothiazol-3-ium-4-yl)-2-((((R)-6-(6-((2-ammonioethyl)amino)-1-methyl-pyridin-1-ium-3-yl)chroman-2-yl)methoxy)imino)acetamido)-2,2-dimethyl-4-oxoazetidin-1-yl sulfate) mono(2,2,2-trifluoroacetate)]",50,1.281,6.25,25
"C[n+]1cc(-c2ccc3c(c2)CC[C@H]([C@](C)(O/N=C(\C(=O)N[C@@H]2C(=O)N(OS(=O)(=O)[O-])C2(C)C)c2csc(N)n2)C(=O)O)O3)ccc1NCCN [Example 34, mono((S)-3-((Z)-2-(2-aminothiazol-3-ium-4-yl)-2-(((S)-1-((R)-6-(6-((2-ammonioethyl)amino)-1-methylpyridin-1-ium-3-yl)chroman-2-yl)-1-carboxy-ethoxy)imino)acetamido)-2,2-dimethyl-4-oxoazetidin-1-yl sulfate) mono(2,2,2-trifluoroacetate)]",25,0.78,12.5,25
"CC1(C)[C@H](NC(=O)/C(=N/O[C@](C)(C(=O)O)[C@H]2CCc3cc(C4CN=C(NC[C@H](O)CN)NC4)ccc3O2)c2csc(N)n2)C(=O)N1OS(=O)(=O)O.O=CO (stereo partly drawn) [Example 28, 2-(((R)-3-amino-2-hydroxypropyl)amino)-5-((R)-2-((S)-1-((((E)-1-(2-aminothiazol-4-yl)-2-(((S)-2,2-dimethyl-4-oxo-1-(sulfooxy)azetidin-3-yl)amino)-2-oxoethylidene)amino)oxy)-1-carboxyethyl)chroman-6-yl)-3,4,5,6-tetrahydropyrimidin-1-ium formate]",3.13,0.2,3.13,6.25
